This note sets out measurements from US4401812A, “Anthracycline antibiotics” (Hoffmann-La Roche Inc., priority 1980, dated 1983).

Values after ≈ are worked out from the molar mass of the structure shown. Like-named read-outs stand apart in the source and are kept apart here.

The test system of data set [1] is Staphylococcus aureus 209P IAM-1011. As to the kind of experiment: in vitro MIC, agar streak method. The following applies: Heart infusion agar, read-out: MIC. The class given is cell-based.
For data set [2], the system named is Escherichia coli NIHJ IFO-12734. As to the kind of experiment: in vitro MIC, agar streak method. In kind it is cell-based. To be noted: IFO12734; Escherichia coli NIHJ IFO-12734; Heart infusion agar; read-out: MIC. The text has this:
(§1) | ^(1) Heart infusion agar

The test system of data set [3] is Escherichia coli K-12 IAM-1264. The data set can be described thus: in vitro MIC, agar streak method. In kind it is cell-based. The following applies: IAM1264; Escherichia coli K-12 IAM-1264; Heart infusion agar; read-out: MIC.
From the text: as §1

The test system of data set [4] is Bacillus subtilis IAM-1027. As to the kind of experiment: in vitro MIC, agar streak method. In kind it is cell-based. The following applies: IAM1027; Bacillus subtilis IAM-1027; Heart infusion agar; read-out: MIC.
From the text: as §1

The subject of data set [5] is Pseudomonas aeruginosa IFO-12689. The data set can be described thus: in vitro MIC, agar streak method. The class given is cell-based. The following applies: IFO12689, Heart infusion agar.
From the text: as §1

In data set [6] the test system is Micrococcus flavus ATCC-10240. The data set can be described thus: in vitro MIC, agar streak method. The class given is cell-based. The following applies: Heart infusion agar, read-out: MIC.
From the text: as §1

In data set [7] the test system is Staphylococcus aureus 209P Stf. The data set can be described thus: in vitro MIC, agar streak method. The class given is cell-based. To be noted: Heart infusion agar.
From the text: as §1

Data set [8] has as its system Mycobacterium smegmatis IFO-13167. As to the kind of experiment: in vitro MIC, agar streak method. The following applies: Mycolicibacterium smegmatis, IFO13167; Mycobacterium smegmatis IFO-13167; Heart infusion agar; read-out: MIC. The class given is cell-based.
From the text: as §1

Data set [9] in a line: in vivo. To be noted: mouse, ip, mice, single i.p. injection, judged 72 hours after, read-out: acute intraperitoneal LD50. As for the experimental part:
The acute intraperitoneal LD50 in mice judged 72 hours after a single injection of the antibiotics is about 90 mg/kg for auramycin C, auramycin D, sulfurmycin C and sulfurmycin D, 40~80 mg/kg for auramycin G and sulfurmycin G and 20~40 mg/kg for auramycin E and sulfurmycin E.

Data set [10] relates to Candida albicans ATCC-10231. As to the kind of experiment: in vitro MIC, agar streak method. To be noted: ATCC10231; Candida albicans ATCC-10231; Sabouraud dextrose agar; read-out: MIC. The class given is cell-based. From the text: (§2) | ^(2) Sabouraud dextrose agar
For data set [11], the system named is Candida tropicalis ATCC-13803. As to the kind of experiment: in vitro MIC, agar streak method. The class given is cell-based. To be noted: ATCC13803; Candida tropicalis ATCC-13803; Sabouraud dextrose agar; read-out: MIC.
From the text: as §2

The test system of data set [12] is P388 leukaemia. The data set can be described thus: Antitumor effect against P388 leukaemia in CDF1 mice. To be noted: Mus musculus, ip, days 1, 5 and 9, 1×10^6 P388 cells i.p., CDF1 mice, read-out: Mean survival (T/C, %); for response vs control in vivo at 1.88 mg/kg: 1.88 mg/kg/day i.p.; for response vs control in vivo at 3.75 mg/kg: 3.75 mg/kg/day i.p.; for response vs control in vivo at 7.5 mg/kg: 7.5 mg/kg/day i.p.; for response vs control in vivo at 15 mg/kg: 15.0 mg/kg/day i.p. In kind it is in vivo. The method, then: The anthracycline glycosides provided by the present invention were tested against P388 leukaemia in mice. When CDF1 mice are inoculated with 1×10^6 cells of P388 intraperitoneally and each of the antibiotics is administered intraperitoneally on days 1, 5 and 9, the survival time of the treated mice is prolonged as shown in Table 5 hereinafter.

Data set [13] has as its system Sarcina lutea IAM1009. The data set can be described thus: in vitro MIC, agar streak method. The class given is cell-based. The following applies: Micrococcus luteus, IAM1009, Sarcina lutea IAM-1009; Heart infusion agar; read-out: MIC.

As a reminder, the MIC is the lowest concentration that inhibits growth of the organism. For orientation: LD50 means the dose expected to kill half of the subjects tested. Consider `COC(=O)C1c2cc3c(c(O)c2C(OC2CC(N(C)C)C(OC4CC(O)C(O)C(C)O4)C(C)O2)CC1(O)CC(C)=O)C(=O)c1c(O)cccc1C3=O` (centres unmarked) [Sulfurmycin C], for which the MIC in [1] is 6.25 µg/mL (≈ 8.59 µM); in data set [2], above 50 µg/mL; in [3], above 50 µg/mL; in data set [4], 12.5 µg/mL (≈ 17.2 µM); in [5], above 50 µg/mL; in data set [6] (ATCC10240, Micrococcus flavus ATCC-10240), 6.25 µg/mL (≈ 8.59 µM). For the same compound, the MIC in data set [7] is 6.25 µg/mL (≈ 8.59 µM); in [8] it was 3.13 µg/mL (≈ 4.3 µM); in data set [10], above 50 µg/mL; in [11], above 50 µg/mL; in data set [13], 6.25 µg/mL (≈ 8.59 µM). For the same compound, the LD50 at 72 h in [9] is around 90 mg/kg. Also, the response vs control in vivo at 1.88 mg/kg in data set [12] turned out to be 131%. Also, the response vs control in vivo at 3.75 mg/kg in data set [12] was determined as 141%. Besides, the response vs control in vivo at 7.5 mg/kg in data set [12] is 138%. The response vs control in vivo at 15 mg/kg in data set [12] turned out to be 141%.

Turning to `COC(=O)C1c2cc3c(c(O)c2C(OC2CC(N(C)C)C(O)C(C)O2)CC1(O)CC(C)=O)C(=O)c1c(O)cccc1C3=O` (centres unmarked) [Sulfurmycin D], the MIC in data set [1] (Staphylococcus aureus) is 25 µg/mL (≈ 41.8 µM); in data set [2] it was above 50 µg/mL; in [3], above 50 µg/mL; in data set [4] it was 12.5 µg/mL (≈ 20.9 µM); in data set [5] it was above 50 µg/mL; in [6] (Micrococcus flavus, ATCC10240, Micrococcus flavus ATCC-10240), 25 µg/mL (≈ 41.8 µM). In addition, the MIC in data set [7] was 25 µg/mL (≈ 41.8 µM); in [8], 6.25 µg/mL (≈ 10.5 µM); in data set [10], above 50 µg/mL; in [11], above 50 µg/mL; in [13], 25 µg/mL (≈ 41.8 µM). Further, in data set [9], the LD50 at 72 h was around 90 mg/kg. In addition, in data set [12], the response vs control in vivo at 1.88 mg/kg was determined as 106%. Moreover, in data set [12], the response vs control in vivo at 3.75 mg/kg was found to be 135%. Further, the response vs control in vivo at 7.5 mg/kg in data set [12] turned out to be 128%. Besides, the response vs control in vivo at 15 mg/kg in [12] came out at 152%.
